# Test results: ChEMBL document CHEMBL1201862, “PubChem BioAssay data set” (2004)
# Calls of active or inactive are those of the source.
# How the values were obtained:
# [1] = biological target: T1, Nuclear receptor subfamily 0 group B member 1 (Homo sapiens, UniProt P51843); assay: Luminescence-based cell-based high throughput dose response assay for inhibitors of the orphan nuclear receptor subfamily 0, group B, member 1 (DAX1; NR0B1). [Related pubchem assays (depositor defined):AID504766, AID504790]; format: functional
# T1 sequence (P51843 whole entry): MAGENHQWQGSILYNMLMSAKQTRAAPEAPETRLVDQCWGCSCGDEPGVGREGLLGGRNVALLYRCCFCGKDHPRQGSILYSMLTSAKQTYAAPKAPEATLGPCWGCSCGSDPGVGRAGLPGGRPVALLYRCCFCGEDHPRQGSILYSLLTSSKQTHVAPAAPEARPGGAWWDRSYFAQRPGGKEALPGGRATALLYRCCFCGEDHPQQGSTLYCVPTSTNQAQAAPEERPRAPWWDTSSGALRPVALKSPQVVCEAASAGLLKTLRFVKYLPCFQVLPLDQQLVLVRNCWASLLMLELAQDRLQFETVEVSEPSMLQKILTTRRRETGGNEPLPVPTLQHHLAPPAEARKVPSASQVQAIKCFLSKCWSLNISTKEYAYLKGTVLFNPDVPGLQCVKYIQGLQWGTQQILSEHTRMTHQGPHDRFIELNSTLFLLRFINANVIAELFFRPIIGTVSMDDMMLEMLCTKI
# [2] = system: HEK293; assay: cells; format: functional, cell-based; details: Homo sapiens
# [3] = biological target: T2, Cytochrome P450 2C9 (Homo sapiens, UniProt P11712)
# T2 sequence (P11712 whole entry): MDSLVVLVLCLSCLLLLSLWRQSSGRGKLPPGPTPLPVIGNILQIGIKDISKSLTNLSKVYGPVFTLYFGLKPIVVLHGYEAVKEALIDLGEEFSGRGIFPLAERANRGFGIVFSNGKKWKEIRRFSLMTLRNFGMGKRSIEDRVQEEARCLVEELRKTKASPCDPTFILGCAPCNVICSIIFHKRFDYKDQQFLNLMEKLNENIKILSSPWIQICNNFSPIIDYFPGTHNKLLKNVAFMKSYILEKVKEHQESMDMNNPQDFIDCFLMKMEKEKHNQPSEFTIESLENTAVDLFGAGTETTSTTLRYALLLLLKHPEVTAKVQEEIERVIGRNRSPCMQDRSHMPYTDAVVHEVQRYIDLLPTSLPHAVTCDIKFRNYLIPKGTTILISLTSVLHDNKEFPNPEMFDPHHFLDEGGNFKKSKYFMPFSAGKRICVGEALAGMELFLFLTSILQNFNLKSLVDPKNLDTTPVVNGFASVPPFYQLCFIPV
# [4] = biological target: Cytochrome P450 3A4 (Homo sapiens, UniProt P08684);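 also: CYP3A4 tested as one member of a cytochrome P450 panel screen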
# Chain of Cytochrome P450 3A4 (P08684 whole entry): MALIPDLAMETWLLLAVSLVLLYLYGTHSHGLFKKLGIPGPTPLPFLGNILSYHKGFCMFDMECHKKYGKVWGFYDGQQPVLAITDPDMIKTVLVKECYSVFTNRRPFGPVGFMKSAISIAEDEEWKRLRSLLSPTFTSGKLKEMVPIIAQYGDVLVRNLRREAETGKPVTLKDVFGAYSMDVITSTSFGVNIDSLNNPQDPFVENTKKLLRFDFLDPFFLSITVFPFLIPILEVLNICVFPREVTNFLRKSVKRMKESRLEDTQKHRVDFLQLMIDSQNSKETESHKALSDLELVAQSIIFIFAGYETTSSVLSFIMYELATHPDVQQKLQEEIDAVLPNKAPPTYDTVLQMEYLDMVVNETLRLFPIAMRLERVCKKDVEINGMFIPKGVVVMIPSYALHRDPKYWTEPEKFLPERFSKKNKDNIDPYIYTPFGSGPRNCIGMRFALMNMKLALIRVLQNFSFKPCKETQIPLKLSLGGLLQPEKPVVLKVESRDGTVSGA
# [5] = biological target: T3, Sentrin-specific protease 8 (Homo sapiens, UniProt Q96LD8); format: functional
# T3 sequence (Q96LD8 whole entry): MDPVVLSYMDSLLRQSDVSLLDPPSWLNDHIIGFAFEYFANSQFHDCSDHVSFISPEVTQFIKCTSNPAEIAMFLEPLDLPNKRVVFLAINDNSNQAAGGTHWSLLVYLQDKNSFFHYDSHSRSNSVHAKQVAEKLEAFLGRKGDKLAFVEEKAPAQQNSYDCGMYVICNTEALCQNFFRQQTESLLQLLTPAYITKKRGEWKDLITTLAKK
# [6] = biological target: T3, Sentrin-specific protease 8; format: functional; remark: listed apart in the source
# [7] = cells; format: functional
# [8] = biological target: Genome polyprotein (dengue virus type 2, UniProt P29990); assay: flavivirus cap methylation enzyme inhibition – biochemical, confirmation dose response, primary screen (AID 588689); format: functional
# Chain of Genome polyprotein (P29990 2492-3391 limits assumed): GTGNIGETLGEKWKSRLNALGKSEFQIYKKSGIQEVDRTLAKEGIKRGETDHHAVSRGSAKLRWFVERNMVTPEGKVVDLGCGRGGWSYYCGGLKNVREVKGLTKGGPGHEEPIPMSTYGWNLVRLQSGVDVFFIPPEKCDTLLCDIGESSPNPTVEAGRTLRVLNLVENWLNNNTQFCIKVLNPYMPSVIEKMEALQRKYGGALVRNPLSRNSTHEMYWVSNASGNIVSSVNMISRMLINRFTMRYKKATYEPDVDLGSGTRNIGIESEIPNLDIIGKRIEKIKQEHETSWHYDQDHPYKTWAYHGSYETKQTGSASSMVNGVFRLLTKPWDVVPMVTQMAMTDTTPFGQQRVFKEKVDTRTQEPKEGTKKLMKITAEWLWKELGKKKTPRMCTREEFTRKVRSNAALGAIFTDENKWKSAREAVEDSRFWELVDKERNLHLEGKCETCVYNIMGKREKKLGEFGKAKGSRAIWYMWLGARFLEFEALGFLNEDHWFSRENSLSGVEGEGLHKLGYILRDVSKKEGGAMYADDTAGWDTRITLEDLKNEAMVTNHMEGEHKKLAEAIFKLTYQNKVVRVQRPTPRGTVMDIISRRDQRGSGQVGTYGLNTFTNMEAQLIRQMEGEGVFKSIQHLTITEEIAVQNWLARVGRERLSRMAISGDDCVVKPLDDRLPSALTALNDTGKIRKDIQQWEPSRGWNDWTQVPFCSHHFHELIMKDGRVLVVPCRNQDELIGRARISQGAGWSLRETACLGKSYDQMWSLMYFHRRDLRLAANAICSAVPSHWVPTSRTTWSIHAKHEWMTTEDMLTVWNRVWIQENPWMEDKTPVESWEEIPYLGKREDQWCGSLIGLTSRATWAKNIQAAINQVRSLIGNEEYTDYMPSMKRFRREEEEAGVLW
# [9] = biological target: T4, Replicative DNA helicase DnaB (Mycobacterium tuberculosis, UniProt P9WMR3); assay: DnaB intein splicing inhibitors, dose response, biochemical, cell-free fluorescence (AID 449749); format: functional
# T4 sequence (P9WMR3 whole entry): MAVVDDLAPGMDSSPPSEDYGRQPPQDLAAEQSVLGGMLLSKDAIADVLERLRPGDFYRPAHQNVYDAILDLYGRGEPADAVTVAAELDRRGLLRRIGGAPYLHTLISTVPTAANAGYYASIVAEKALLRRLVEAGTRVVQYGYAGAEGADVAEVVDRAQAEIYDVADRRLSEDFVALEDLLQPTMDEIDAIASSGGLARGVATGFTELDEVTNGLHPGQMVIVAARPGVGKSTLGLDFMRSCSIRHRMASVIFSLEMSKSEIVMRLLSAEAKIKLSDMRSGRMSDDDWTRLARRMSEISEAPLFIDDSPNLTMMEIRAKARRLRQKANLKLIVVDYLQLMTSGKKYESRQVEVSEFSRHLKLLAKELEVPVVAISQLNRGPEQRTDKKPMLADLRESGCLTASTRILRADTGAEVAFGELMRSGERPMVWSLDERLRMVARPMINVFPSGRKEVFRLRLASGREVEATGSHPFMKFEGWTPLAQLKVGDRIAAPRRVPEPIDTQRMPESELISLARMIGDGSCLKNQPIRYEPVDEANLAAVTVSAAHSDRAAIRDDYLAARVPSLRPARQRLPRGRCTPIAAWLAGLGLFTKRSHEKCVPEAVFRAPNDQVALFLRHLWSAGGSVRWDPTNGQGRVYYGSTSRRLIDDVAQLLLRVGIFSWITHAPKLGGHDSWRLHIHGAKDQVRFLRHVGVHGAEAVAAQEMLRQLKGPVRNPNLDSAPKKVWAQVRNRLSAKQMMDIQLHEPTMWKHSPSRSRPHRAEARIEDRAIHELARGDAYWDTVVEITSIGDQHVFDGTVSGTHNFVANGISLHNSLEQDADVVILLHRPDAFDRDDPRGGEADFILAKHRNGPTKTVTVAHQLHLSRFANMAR
# [10] = biological target: T5, Protein RecA (Mycobacterium tuberculosis, UniProt P9WHJ3); assay: Fluorescence Cell-Free Homogeneous Dose Retest to Identify Inhibitors of RecA-Intein Splicing Activity. [Related pubchem assays (depositor defined):AID2097, AID2223, AID489010, AID492950]; format: functional
# T5 sequence (P9WHJ3 whole entry): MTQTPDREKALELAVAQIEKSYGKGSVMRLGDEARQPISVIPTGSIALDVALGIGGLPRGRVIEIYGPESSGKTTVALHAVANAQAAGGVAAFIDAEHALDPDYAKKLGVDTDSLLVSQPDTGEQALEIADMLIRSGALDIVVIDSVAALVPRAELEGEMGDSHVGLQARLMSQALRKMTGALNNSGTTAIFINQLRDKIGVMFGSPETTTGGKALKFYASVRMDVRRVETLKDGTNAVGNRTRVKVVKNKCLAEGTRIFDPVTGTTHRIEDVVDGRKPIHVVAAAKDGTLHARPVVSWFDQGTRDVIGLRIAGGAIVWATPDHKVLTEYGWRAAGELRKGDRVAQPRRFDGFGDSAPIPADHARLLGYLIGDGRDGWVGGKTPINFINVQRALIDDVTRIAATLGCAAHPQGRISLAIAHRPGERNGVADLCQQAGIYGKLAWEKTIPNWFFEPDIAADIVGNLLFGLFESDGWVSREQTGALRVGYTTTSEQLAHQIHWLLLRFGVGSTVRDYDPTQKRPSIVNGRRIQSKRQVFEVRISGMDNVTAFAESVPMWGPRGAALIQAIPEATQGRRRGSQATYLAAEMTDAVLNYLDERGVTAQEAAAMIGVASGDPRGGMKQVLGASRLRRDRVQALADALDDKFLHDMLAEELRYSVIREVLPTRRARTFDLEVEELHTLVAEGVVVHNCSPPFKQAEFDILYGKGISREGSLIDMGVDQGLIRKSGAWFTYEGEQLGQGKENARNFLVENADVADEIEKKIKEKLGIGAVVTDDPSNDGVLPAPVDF
# [11] = biological target: SUMO E1/E2 (Homo sapiens, UniProt P63279+Q9UBE0+Q9UBT2); assay: SAR analysis of SUMOylation using HTRF in an in-Vitro dose response assay. [Related pubchem assays (depositor defined):AID2006, AID2011, AID2018, AID2069, AID2658]; format: functional
# Chain of SUMO E1/E2 (Q9UBE0 whole entry): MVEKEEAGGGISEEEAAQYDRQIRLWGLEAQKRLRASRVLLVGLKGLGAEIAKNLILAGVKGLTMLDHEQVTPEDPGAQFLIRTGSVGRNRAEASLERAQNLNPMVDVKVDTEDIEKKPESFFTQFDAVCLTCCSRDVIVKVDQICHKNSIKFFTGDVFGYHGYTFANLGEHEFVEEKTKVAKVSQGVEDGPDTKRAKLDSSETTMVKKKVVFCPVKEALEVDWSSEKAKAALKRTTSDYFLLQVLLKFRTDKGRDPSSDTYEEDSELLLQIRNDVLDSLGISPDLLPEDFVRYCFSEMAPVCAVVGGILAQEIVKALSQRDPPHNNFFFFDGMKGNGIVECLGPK
# Chain of SUMO E1/E2 (Q9UBT2 whole entry): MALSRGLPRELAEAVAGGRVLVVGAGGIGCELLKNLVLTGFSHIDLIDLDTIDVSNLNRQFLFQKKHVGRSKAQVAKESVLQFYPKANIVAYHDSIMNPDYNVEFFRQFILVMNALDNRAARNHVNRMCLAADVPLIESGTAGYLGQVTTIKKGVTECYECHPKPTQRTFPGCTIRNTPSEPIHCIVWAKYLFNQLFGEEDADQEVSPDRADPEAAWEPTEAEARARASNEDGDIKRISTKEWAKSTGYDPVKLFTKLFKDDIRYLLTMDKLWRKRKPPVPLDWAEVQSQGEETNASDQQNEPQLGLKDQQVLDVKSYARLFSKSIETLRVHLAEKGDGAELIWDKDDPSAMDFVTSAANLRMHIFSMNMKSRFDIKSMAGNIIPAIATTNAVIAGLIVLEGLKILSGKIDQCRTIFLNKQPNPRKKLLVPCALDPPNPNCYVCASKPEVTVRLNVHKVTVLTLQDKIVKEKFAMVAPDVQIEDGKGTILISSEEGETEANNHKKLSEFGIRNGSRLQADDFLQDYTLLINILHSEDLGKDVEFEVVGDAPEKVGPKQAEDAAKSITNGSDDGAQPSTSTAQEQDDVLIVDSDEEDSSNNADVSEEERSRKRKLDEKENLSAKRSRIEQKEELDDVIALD
# Chain of SUMO E1/E2 (P63279 whole entry): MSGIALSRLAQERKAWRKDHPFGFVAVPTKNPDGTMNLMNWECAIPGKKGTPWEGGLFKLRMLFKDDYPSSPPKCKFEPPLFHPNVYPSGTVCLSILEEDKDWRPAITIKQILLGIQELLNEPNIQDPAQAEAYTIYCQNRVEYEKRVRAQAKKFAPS
# [12] = biological target: Cytochrome P450 2C19 (Homo sapiens, UniProt P33261); assay: Cytochrome panel assay with activity outcomes. Panel member name: p450-cyp2c19 Compounds with AC50 equal or less than 10 uM are considered active; format: functional; details: read-out: AC50
# Chain of Cytochrome P450 2C19 (P33261 whole entry): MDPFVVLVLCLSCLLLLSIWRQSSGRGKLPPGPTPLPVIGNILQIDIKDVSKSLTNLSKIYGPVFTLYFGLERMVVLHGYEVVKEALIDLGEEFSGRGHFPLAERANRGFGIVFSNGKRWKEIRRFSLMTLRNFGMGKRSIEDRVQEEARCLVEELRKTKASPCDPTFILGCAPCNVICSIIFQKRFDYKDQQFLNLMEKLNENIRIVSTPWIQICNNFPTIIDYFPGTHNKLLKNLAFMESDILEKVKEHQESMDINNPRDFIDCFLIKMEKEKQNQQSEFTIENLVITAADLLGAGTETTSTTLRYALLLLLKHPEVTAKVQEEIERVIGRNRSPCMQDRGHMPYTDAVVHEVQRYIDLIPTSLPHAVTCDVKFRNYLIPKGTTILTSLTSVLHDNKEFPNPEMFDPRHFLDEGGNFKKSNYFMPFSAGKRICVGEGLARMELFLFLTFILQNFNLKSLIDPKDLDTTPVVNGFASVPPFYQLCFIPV
# [13] = biological target: T2, Cytochrome P450 2C9; remark: listed apart in the source
# [14] = biological target: T6, Endoribonuclease toxin MazF (Escherichia coli K-12, UniProt P0AE70); assay: activation of MazEF endoribonuclease cleavage – biochemical, fluorescence, single-stranded RNA substrate, uHTS hits, dose response (AID 588481); format: functional
# T6 sequence (P0AE70 whole entry): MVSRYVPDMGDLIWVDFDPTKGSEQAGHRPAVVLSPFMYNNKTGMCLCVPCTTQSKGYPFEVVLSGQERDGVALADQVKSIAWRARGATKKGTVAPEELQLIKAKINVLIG
# [15] = biological target: T6, Endoribonuclease toxin MazF; assay: substrate-only fluorescence increase artefacts – biochemical, single-stranded RNase substrate, counter-screen for MazEF activator project, dose response (AID 588502); format: functional
# [16] = alpha-synuclein stem-loop luciferase translation blockers – H4 neuroglioma cells, luminescence, confirmation (AID 1988); format: functional, cell-based
# [17] = biological target: T7, Zinc finger protein mex-5 (Caenorhabditis elegans, UniProt Q9XUB2); assay: potency of MEX-5 RNA-binding blockers – biochemical, C. elegans, fluorescence polarization, dose response (AID 1960)
# T7 sequence (Q9XUB2 whole entry): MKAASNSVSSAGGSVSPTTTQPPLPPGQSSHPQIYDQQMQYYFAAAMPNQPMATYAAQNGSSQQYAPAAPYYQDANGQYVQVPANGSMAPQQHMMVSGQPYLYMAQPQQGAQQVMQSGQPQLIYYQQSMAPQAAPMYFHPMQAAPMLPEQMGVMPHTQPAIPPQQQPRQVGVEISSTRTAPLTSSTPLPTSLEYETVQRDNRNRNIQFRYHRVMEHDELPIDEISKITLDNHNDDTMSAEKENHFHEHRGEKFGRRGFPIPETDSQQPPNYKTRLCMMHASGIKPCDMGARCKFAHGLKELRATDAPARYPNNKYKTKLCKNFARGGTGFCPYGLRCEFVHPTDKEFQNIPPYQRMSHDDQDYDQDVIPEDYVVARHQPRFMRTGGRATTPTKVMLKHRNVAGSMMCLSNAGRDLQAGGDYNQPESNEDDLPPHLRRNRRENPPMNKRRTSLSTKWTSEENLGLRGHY
# [18] = luciferase reporter signal suppression in cells – H4 neuroglioma cells, luminescence, dose response (AID 1990); format: functional, cell-based
# [19] = Luminescence Cell-Based Dose Response HTS to Identify Inhibitors of 5'UTR Stem-Loop Driven Prion Protein mRNA Translation in H4 Neuroglioblastoma Cells. [Related pubchem assays: 1827 (Project Summary), 1813 (Primary HTS)]; format: functional
# [20] = biological target: T8, RNA-binding protein pos-1 (Caenorhabditis elegans, UniProt G5EF15); assay: disruptors of C. elegans POS-1 RNA interaction – biochemical, fluorescence polarization, dose response (AID 1964);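 also: purified POS-1 fused to maltose binding protein made in E. coli; potency of compounds blocking POS-1 binding to fluorescent RNA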
# T8 sequence (G5EF15 whole entry): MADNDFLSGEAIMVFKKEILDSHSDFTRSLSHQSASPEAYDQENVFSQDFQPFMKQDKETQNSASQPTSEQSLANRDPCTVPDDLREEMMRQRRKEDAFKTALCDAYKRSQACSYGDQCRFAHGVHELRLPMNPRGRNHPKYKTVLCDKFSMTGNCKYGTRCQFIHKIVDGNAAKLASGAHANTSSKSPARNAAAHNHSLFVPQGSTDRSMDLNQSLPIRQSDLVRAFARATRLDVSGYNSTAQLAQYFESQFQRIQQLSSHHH
# [21] = biological target: Dual specificity tyrosine-phosphorylation-regulated kinase 1A (Rattus norvegicus, UniProt Q63470); format: biochemical, Homo sapiens
# [22] = system: Streptococcus sp. 'group A'; assay: Streptococcus pyogenes SK(-)GAS viability under kanamycin – luminescence, BacTiterGlo, confirmation, counter-screen for streptokinase expression inhibitor project, dose response (AID 1900); format: functional, organism-based
# [23] = biological target: Dual specificity protein kinase CLK1 (Homo sapiens, UniProt P49759); assay: inhibition of human CLK1 activity – biochemical, cherry-picked samples, selectivity assay for Dyrk1A inhibitor project, dose response (AID 588811)
# Chain of Dual specificity protein kinase CLK1 (P49759 whole entry): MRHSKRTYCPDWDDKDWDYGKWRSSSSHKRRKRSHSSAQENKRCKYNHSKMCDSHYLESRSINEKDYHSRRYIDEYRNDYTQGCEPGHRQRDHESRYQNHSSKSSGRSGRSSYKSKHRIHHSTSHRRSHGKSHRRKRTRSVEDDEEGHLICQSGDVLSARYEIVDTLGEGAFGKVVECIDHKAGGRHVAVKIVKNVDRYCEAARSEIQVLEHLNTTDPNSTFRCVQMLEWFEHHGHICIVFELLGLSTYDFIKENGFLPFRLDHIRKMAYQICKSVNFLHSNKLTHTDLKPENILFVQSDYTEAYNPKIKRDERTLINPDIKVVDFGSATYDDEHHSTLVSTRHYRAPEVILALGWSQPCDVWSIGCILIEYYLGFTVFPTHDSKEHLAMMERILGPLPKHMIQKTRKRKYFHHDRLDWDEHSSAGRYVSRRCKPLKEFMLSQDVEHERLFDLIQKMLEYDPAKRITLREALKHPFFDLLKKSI
# [24] = biological target: FAD-linked sulfhydryl oxidase ALR (Homo sapiens, UniProt P55789); assay: ALR-catalysed DTT oxidation blockers – biochemical, H2O2 detection, luminescence, cherry-pick, dose response (AID 493248)
# Chain of FAD-linked sulfhydryl oxidase ALR (P55789 whole entry): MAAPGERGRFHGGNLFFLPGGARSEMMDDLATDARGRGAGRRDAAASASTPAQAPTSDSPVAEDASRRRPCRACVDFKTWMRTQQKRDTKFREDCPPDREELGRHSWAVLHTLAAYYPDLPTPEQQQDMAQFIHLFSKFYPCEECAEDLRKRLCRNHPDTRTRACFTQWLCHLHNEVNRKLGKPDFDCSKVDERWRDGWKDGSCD
# [25] = system: Streptococcus; assay: GAS UMAA2166 growth inhibition – luminescence, BacTiterGlo, counter-screen for streptokinase expression inhibitor project, dose response (AID 1915); format: functional, organism-based;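 also: potency for reduction of bacterial viability or growth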
compound,measurement,setting,value
CCn1c(=O)c(C(=O)NNS(=O)(=O)c2ccc(Br)cc2)c(O)c2ccccc21,IC50,[1],> 67.6 µM (inactive)
same,IC50,[2],> 67.6 µM (inactive)
O=C(c1ccco1)N1CCC2(CC1)CCN(C(c1ccccc1)c1ccccc1)CC2,AC50,[3],39.8 µM (inconclusive)
same,AC50,[4],inconclusive
Cc1n[nH]c(O)c1C(c1ccc(-c2ccc(F)cc2)o1)c1c(C)n[nH]c1O,IC50,[5],12.3 µM (active)
same,IC50,[6],14 µM (active)
same,IC50,[7],41.6 µM (active)
same,IC50,[8],58.1 µM (active)
same,AC50,[9],0.321 µM (active)
same,EC50,[10],0.297 µM (active)
same,IC50,[11],> 100 µM (inactive)
CC(=O)OCc1nc2ccccc2s1,AC50,[12],25.1 µM (inconclusive)
same,AC50,[4],inconclusive
same,AC50,[13],inconclusive
COc1ccc(-c2noc(-c3ccoc3C)n2)cc1,IC50,[1],> 67.6 µM (inactive)
same,IC50,[2],> 67.6 µM (inactive)
Cn1cccc1/C=C1\SC(=O)N(c2ccc(O)cc2)C1=O,EC50,[14],> 99 µM (inactive)
same,EC50,[15],29.2 µM (inactive)
CCOC(=O)CN1C(=O)Nc2ccc(Br)cc2C1c1ccccc1 (centres undefined),AC50,[4],inconclusive
Cc1c(N/C=C2/C(=O)N(C)C(=O)c3ccccc32)c(=O)n(-c2ccccc2)n1C,EC50,[16],> 120 µM (not active)
same,EC50,[17],> 300 µM (inconclusive)
same,EC50,[18],> 120 µM (not active)
same,EC50,[14],> 99 µM (inactive)
same,EC50,[19],> 120 µM (not active)
same,EC50,[15],56.4 µM (inactive)
same,EC50,[20],> 300 µM (not active)
Cc1cccc(-c2nc(Nc3ccc(O)cc3)c3ccccc3n2)c1,AC50,[21],1.1 µM (active)
Cc1noc(NS(=O)(=O)c2ccc(NC(=O)c3oc4ccc(Cl)cc4c3C)cc2)c1C,EC50,[22],8.14 µM (active)
same,AC50,[23],10 µM (active)
same,AC50,[21],6.88 µM (active)
same,AC50,[24],0.626 µM (active)
same,EC50,[25],36.9 µM (active)
COc1ccc(C(=O)Nc2nc(C)c(C(C)=O)s2)cc1S(=O)(=O)N1CCOCC1,EC50,[14],> 99 µM (inactive)
same,EC50,[15],> 99 µM (inactive)
